We go through one molecule from patent US12599562B2, “Nanocrystal microparticles of poorly soluble drugs and methods of production and use thereof” (The Board of Regents of the University of Oklahoma, priority 2017, dated 2026).

What is called solubility is how much of the substance goes into solution per volume.

≈ marks a conversion by molar mass, not a printed value.

Series [1] is described as follows: Apparent maximum solubility of SHetA2 NCs and SHetA2 NC-MPs in PBS containing 0.05% SDS. The series is classed as physicochemical. The settings on record: aqueous with cosolvent or surfactant or cyclodextrin, thermodynamic from solid, at first 5 min, read-out: apparent maximum solubility (highest drug solubility). On the procedure: SHetA2 NCs, SHetA2 MPs, and SHetA2 NC-MPs in PBS containing 0.05% SDS.
Apparent Maximum Solubility of SHetA2 NCs and SHetA2 NC-MPs
The apparent maximum solubility profiles of SHetA2 NCs, SHetA2 NC-MPs, unprocessed SHetA2 (i.e., unprocessed drug), and spray dried SHetA2 MPs (i.e., microparticulate amorphous drug) are shown in FIG. 8. […] SHetA2 NC-MPs and spray dried SHetA2 MPs followed a similar dissolution profile after 45 min. […] After 6 h, SHetA2 NCs followed a similar dissolution profile with the other two formulations.

Series [2] in a line: Dissolution profile (cumulative percentage of SHetA2 dissolved). The following applies: size range 2.82-4.46 μm; level reached (NCs and NC-MPs rising until 5 h). Type of series: physicochemical. The text has this:
Cumulative percentage dissolved SHetA2 from unprocessed SHetA2, SHetA2 NCs, SHetA2 MPs, and SHetA2 NC-MPs.
Dissolution Profile of SHetA2 NC-MPs, Unprocessed SHetA2, and Spray Dried SHetA2 MPs of Size Range 2.82-4.46 μm
The mean cumulative percentage of SHetA2 dissolved versus time data for SHetA2 NCs, SHetA2 NC-MPs, spray dried SHetA2 MPs, and unprocessed SHetA2 is shown in FIG. 9. MPs in sizes 2.82-4.46 μm were studied, because the particles in this size range are deposited in the alveolar region of the lungs. […] The concentration of SHetA2 increased at a constant rate for SHetA2 NCs and SHetA2 NC-MPs until 5 h. […] In the case of spray dried SHetA2 MPs, there was a prompt release within the first 15 min, then SHetA2 concentration increased slowly until leveling at a cumulative percentage of 21.19±4.40%. In contrast, the unprocessed SHetA2 dissolved only 3.51±0.9%.

On to `CC1(C)CC(C)(C)c2cc(NC(=S)Nc3ccc([N+](=O)[O-])cc3)ccc2S1` [unprocessed SHetA2], for which the solubility at 5 min in series [1] was determined as 0.48 ± 0.11 µg/mL (≈ 1.2 µM). Further, the “cumulative percentage of SHetA2 dissolved” value in series [2] is 3.51±0.9%.
